Assay results published in patent publication US6037332A, “Method of urinary bladder instillation” (Emory University, priority 1997, dated 2000).

What was measured:
[1] = system: epidermal growth factor (EGF) binding to T24 cells; assay: 125I-EGF growth factor receptor binding to T24 cells; set-up: species or system human
Method: Method: Growth factor receptor binding studies were performed using T24 high grade human bladder tumor cell line. Cells were incubated with […] ^125 I-Insulin like growth factor-1 (^125 I-IGF-1) or ^125 I-epidermal growth factor (^125 I-EGF) and varying concentration of unlabeled growth factor or dextran sulfate in 1 ml of binding assay buffer. After incubation at 4° C. for 10 to 12 hours, the assay buffer was removed and the cultures washed three times. The cells and receptor-bound growth factors were then solubilized in 1 ml of […] before being quantitated in a gamma radiation counter.

[2] = system: MNU-induced rat bladder transitional cell carcinoma
Method: (1972) and modified by Steinberg, et al. (1990). Animals: Four to five week old female Fisher 344 rats (avg. Wt. 200 g) were used in all cohorts on this trial. All animals received 5 mg/200 g body weight intraperitoneal gentamicin (50 mg/ml) as antibacterial prophylaxis one hour prior to each bladder catheterization. MNU dose and schedule: 100 mg of MNU (Sigma, St. Louis, Mo.) were dissolved in 10 ml of sodium acetate (CH3 COONa), pH of a solution=6.5. Five mg/200 g body weight of this solution (0.5 ml) was instilled intravesically via a 22-gauge teflon angiocatheter under a continuous flow hood within 45 minutes of preparing the MNU solution every other week for a total of 4 doses (8 weeks). […] (Mol. Wt. 8000 Da.-Sigma, St. Louis, Mo.) Beginning at week four, 20 of the animals received intravesical dextran sulfate, 10 mg/200 g body weight twice a week for four weeks. The remaining 20 animals received saline on the same schedule. Tissue Preparations: The urinary bladder were excised, filled and fixed with 10% neutral buffered formalin, and then embedded in paraffin. The bladders were sectioned every 2 mm and 5-micron sections were stained with hematoxylin and eosin.

[3] = system: human urinary bladder carcinoma cells; conditions: Sorimachi et al. 1992; cited from earlier work
T24 cells = assay: Proliferation of human transitional cell carcinoma cultures (crystal violet, A540 ratio day one/day eight); format: cell-based; conditions: 10 mM dextran sulfate; day eight; p<0.0001
Method: Method: Cultures of two urothelial carcinoma cell lines, HT 1376 and T24 were obtained from the American Type Culture Collection and propagated in Dulbecco's Modified Eagles Medium (DMEM) supplemented with 10% fetal bovine serum (FBS). The HT1376 and T24 cells were plated into 96 well polystyrene trays in 0.1 ml of medium at densities of 5000 and 2500 cells/wells respectively. After overnight incubation, medium was replaced with DMEM containing various FBS and dextran sulfate concentrations. Each FBS and dextran sulfate concentration was tested in quadruplicated wells. On day eight the cells were fixed with glutaraldehyde, stained with 0.1% crystal violet and absorbance at 540 nm was quantitated in a (Bio-Rad) microplate spectrophotometer.
Results: The ratio of A540 values in day one and day eight was used to indicate cell proliferation.

[4] = system: MNU induced bladder tumors; conditions: intravesical, Fisher 344 rats; Graham et al. 1995; cited from earlier work

dextran sulfate
EGF binding ([1]; dextran sulfate 10 mM): 115 % of control | EGF binding ([1]; dextran sulfate 1-2 mM): 80 % of control binding | prevention of development of transitional cell carcinoma of the bladder ([2]; intravesical, 10 mg/200 g body weight twice a week for four weeks, from week four): effectively prevents the development of transitional cell carcinoma of the bladder | side effects or histopathologic changes in urinary bladders ([2]; rat, in vivo): did not cause any significant side effects or histopathologic changes | inhibitory effect on growth of human urinary bladder carcinoma cells in culture [3]: failed to observe an inhibitory effect | T24 cell proliferation inhibition (T24 cells): completely inhibited

Cc1ccc(C(=O)Nc2ccc(S(=O)(=O)O)c3cc(S(=O)(=O)O)cc(S(=O)(=O)O)c23)cc1NC(=O)c1cccc(NC(=O)Nc2cccc(C(=O)Nc3cc(C(=O)Nc4ccc(S(=O)(=O)O)c5cc(S(=O)(=O)O)cc(S(=O)(=O)O)c45)ccc3C)c2)c1 [Suramin]
in-vivo action on MNU induced bladder tumors [4]: intravesical inhibition of MNU induced bladder tumors
